Data on 19 compounds can be found in patent US7205301B2, “Microbiocidal N-phenyl-n-[4-(4-pyridyl)-2-pyrimidin-2-yl]-amine derivatives” (Syngenta Crop Protection, Inc., priority 2001, dated 2007).

Format in all cases: in vivo
The subject of assay [1] is Botrytis cinerea. Nature of the assay: Example B-7: Botrytis cinerea / grape (Botrytis on grapes). To be noted: 72 h, 0.02% active substance, spray, grape seedlings cv. Gutedel, inoculated two days after application, assessed after 3 days incubation, read-out: control of the fungal infection. How it is done:
Botrytis cinerea/Grape (Botrytis on Grapes) 5 week old grape seedlings cv. Gutedel are treated with the formulated test compound (0.02% active substance) in a spray chamber. Two days after application grape plants are inoculated by spraying a spore suspension (1.5×10^5 conidia/ml) on the test plants. After an incubation period of 3 days at +21° C. and 95% r. h. in a greenhouse the disease incidence is assessed.

The test system of assay [2] is Pyrenophora teres (Helminthosorium). Nature of the assay: Example B-10: effect against Pyrenophora teres (Helminthosorium) / barley (net blotch on barley). To be noted: 48 h, 0.02% active substance, spray, barley cv. Regina, inoculated two days after application, assessed after 2 days incubation, read-out: control of the fungal infection. How it is done: Effect Against Pyrenophora teres (Helminthosorium)/Barley (Net Blotch on Barley) 1 week old barley plants cv. Regina are treated with a formulated test compound (0.02% active substance) in a spray chamber. Two days. after application barley plants are inoculated by spraying a spore suspension (3×10^4 conidia/ml) on the test plants. After an incubation period of 2 days at +20° C. and 95% r.h. the disease incidence is assessed.

The next assay concerns Septoria nodorum. The experiment in a line: Example B-12: effect against Septoria nodorum / wheat (Septoria leaf spot on wheat). To be noted: Parastagonospora nodorum, 192 h; 0.02% active substance, spray; wheat cv. Arina; inoculated one day after application; assessed 8 days after inoculation; read-out: control of the fungal infection. How it is done: Effect Against Septoria nodorum/Wheat (Septoria Leaf Spot on Wheat) 1 week old wheat plants cv. Arina are treated with a formulated test compound (0.02% active substance) in a spray chamber. One day after application wheat plants are inoculated by spraying a spore suspension (6×10^5 conidia/ml) on the test plants. After an incubation period of 1 day at +22° C. and 95% r.h. plants are kept for 7 days at +22° C. and 60% r.h. in a greenhouse. The disease incidence is assessed 8 days after inoculation.

Assay [3] has as its system Botrytis cinerea. Nature of the assay: Example B-8: effect against Botrytis cinerea / tomato (Botrytis on tomatoes). To be noted: 96 h, 0.02% active substance, spray, tomato cv. Roter Gnom, inoculated two days after application, assessed after 4 days incubation, read-out: control of the fungal infection. The procedure:
Effect Against Botrytis cinerea/Tomato (Botrytis on Tomatoes) 4 week old tomato plants cv. Roter Gnom are treated with the formulated test compound 0.02% active substance) in a spray chamber. Two days after application tomato plants are inoculated by spraying a spore suspension (1×10^5 conidia/ml) on the test plants. After an incubation period of 4 days at +20° C. and 95% r. h. in a greenhouse the disease incidence is assessed.

As for `COCc1nn(-c2cc(-c3ccnc(Nc4cccc(Cl)c4)n3)ccn2)c(OC)c1C` [3.013/028, (3-Chloro-phenyl)-{4-[2-(5-methoxy-3-methoxymethyl-4-methyl-pyrazol-1-yl)-pyridin-4-yl]-pyrimidin-2-yl}-amine], the pest or weed control at 0.02 % strength (in the assay on Botrytis cinerea [1]; in assay [2]) was over 70% each time.

Turning to `Cc1c(C)n(C)n(-c2cc(-c3ccnc(Nc4cccc(Cl)c4)n3)ccn2)c1=O` [2.02/028, 2-{4-[2-(3-Chloro-phenylamino)-pyrimidin-4-yl]-pyridin-2-yl}-1,4,5-trimethyl-1,2-dihydro-pyrazol-3-one], the pest or weed control at 0.02 % strength (with Septoria nodorum; in assay [2]; in the assay on Botrytis cinerea [3]) was over 70% in each case.

Consider `COCc1c(C)c(=O)n(-c2cc(-c3ccnc(Nc4cccc(Cl)c4)n3)ccn2)n1C` [2.09/028, 2-{4-[2-(3-Chloro-phenylamino)-pyrimidin-4-yl]-pyridin-2-yl}-5-methoxymethyl-1,4-dimethyl-1,2-dihydro-pyrazol-3-one], for which the pest or weed control at 0.02 % strength (in the assay on Botrytis cinerea [1]; in the assay on Septoria nodorum; in assay [2]) was over 70% each time.

On to `CCC1(C)C(=O)N(c2cc(-c3ccnc(Nc4cccc(Cl)c4)n3)ccn2)N=C1C` (stereo not shown) [1.03/028, 2-{4-[2-(3-Chloro-phenylamino)-pyrimidin-4-yl]-pyridin-2-yl}-4-ethyl-4,5-dimethyl-2,4-dihydro-pyrazol-3-one], for which the pest or weed control at 0.02 % strength (in the assay on Botrytis cinerea [1]; in the assay with Septoria nodorum; in assay [2]) was over 70% each time.

Turning to `COCC1=NN(c2cc(-c3ccnc(Nc4cccc(Cl)c4)n3)ccn2)C(=O)C1(C)C` [1.08/028, 2-{4-[2-(3-Chloro-phenylamino)-pyrimidin-4-yl]-pyridin-2-yl}-5-methoxymethyl-4,4-dimethyl-2,4-dihydro-pyrazol-3-one], the pest or weed control at 0.02 % strength in assay [2] was over 70%.

In the case of `CC1(C)C=NN(c2cc(-c3ccnc(Nc4cccc(Cl)c4)n3)ccn2)C1=O` [1.07/028, 2-{4-[2-(3-Chloro-phenylamino)-pyrimidin-4-yl]-pyridin-2-yl}-4,4-dimethyl-2,4-dihydro-pyrazol-3-one], the pest or weed control at 0.02 % strength (in the assay on Botrytis cinerea [1]; in the assay with Septoria nodorum; in assay [2]) was over 70% in each case.

Take `Cc1nn(-c2cc(-c3ccnc(Nc4cccc(Cl)c4)n3)ccn2)c(C)c1C` [3.017/028, (3-Chloro-phenyl)-{4-[2-(3,4,5-trimethyl-pyrazol-1-yl)-pyridin-4-yl]-pyrimidin-2-yl}-amine]: the pest or weed control at 0.02 % strength in assay [2] was over 70%.

With `Cc1c(C=O)c(=O)n(-c2cc(-c3ccnc(Nc4cccc(Cl)c4)n3)ccn2)n1C` [2.04/028, 2-{4-[2-(3-Chloro-phenylamino)-pyrimidin-4-yl]-pyridin-2-yl}-1,5-dimethyl-3-oxo-2,3-dihydro-1H-pyrazole-4-carbaldehyde], the pest or weed control at 0.02 % strength in the assay with Septoria nodorum was over 70%.

Take `Cc1cn(C)n(-c2cc(-c3ccnc(Nc4cccc(Cl)c4)c3)ccn2)c1=O` [2.05/028, 2-{4-[2-(3-Chloro-phenylamino)-pyridin-4-yl]-pyridin-2-yl}-1,4-dimethyl-1,2-dihydro-pyrazol-3-one]: the pest or weed control at 0.02 % strength (with Botrytis cinerea [1]; in the assay on Septoria nodorum; in assay [2]; in the assay on Botrytis cinerea [3]) was over 70% in each case.

For `COCc1cc(OC)n(-c2cc(-c3ccnc(Nc4cccc(Cl)c4)n3)ccn2)n1` [3.014/028, (3-Chloro-phenyl)-{4-[2-(5-methoxy-3-methoxymethyl-pyrazol-1-yl)-pyridin-4-yl]-pyrimidin-2-yl}-amine], the pest or weed control at 0.02 % strength (in the assay on Botrytis cinerea [1]; in assay [2]) was over 70% throughout.

As for `Cc1cc(=O)n(-c2cc(-c3ccnc(Nc4cccc(Cl)c4)n3)ccn2)n1C` [2.03/028, 2-{4-[2-(3-Chloro-phenylamino)-pyrimidin-4-yl]-pyridin-2-yl}-1,5-dimethyl-1,2-dihydro-pyrazol-3-one], the pest or weed control at 0.02 % strength (with Botrytis cinerea [1]; in the assay with Septoria nodorum; in assay [2]) was over 70% each time.

As to `CC1=NN(c2cc(-c3ccnc(Nc4cccc(Cl)c4)n3)ccn2)C(=S)C1(C)C` [1.06/028, 2-{4-[2-(3-Chloro-phenylamino)-pyrimidin-4-yl]-pyridin-2-yl}-4,4,5-trimethyl-2,4-dihydro-pyrazole-3-thione], the pest or weed control at 0.02 % strength (with Botrytis cinerea [1]; with Septoria nodorum; in assay [2]; in the assay with Botrytis cinerea [3]) was over 70% throughout.

Take `COCc1cc(=O)n(-c2cc(-c3ccnc(Nc4cccc(Cl)c4)n3)ccn2)n1C` [2.011/028, 2-{4-[2-(3-Chloro-phenylamino)-pyrimidin-4-yl]-pyridin-2-yl}-5-methoxymethyl-1-methyl-1,2-dihydro-pyrazol-3-one]: the pest or weed control at 0.02 % strength in assay [2] is over 70%.

Turning to `CCn1c(C)c(C)c(=O)n1-c1cc(-c2ccnc(Nc3cccc(Cl)c3)c2)ccn1` [2.06/028, 2-{4-[2-(3-Chloro-phenylamino)-pyridin-4-yl]-pyridin-2-yl}-1-ethyl-4,5-dimethyl-1,2-dihydro-pyrazol-3-one], the pest or weed control at 0.02 % strength with Septoria nodorum and with Botrytis cinerea [3] was over 70% in each case.

Take `CC1=NN(c2cc(-c3ccnc(Nc4cccc(Cl)c4)n3)ccn2)C(=O)C1(C)C` [1.01/028, 2-{4-[2-(3-Chloro-phenylamino)-pyrimidin-4-yl]-pyridin-2-yl}-4,4,5-trimethyl-2,4-dihydro-pyrazol-3-one]: the pest or weed control at 0.02 % strength (in the assay with Botrytis cinerea [1]; in the assay with Septoria nodorum; in assay [2]; in the assay with Botrytis cinerea [3]) was over 70% in each case.

`COCN(c1cccc(Cl)c1)c1nccc(-c2ccnc(-n3c(=O)cc(C)n3C)c2)n1` [2.08/048, 2-(4-{2-[(3-Chloro-phenyl)-methoxymethyl-amino]-pyrimidin-4-yl}-pyridin-2-yl)-1,5-dimethyl-1,2-dihydro-pyrazol-3-one]: the pest or weed control at 0.02 % strength (in the assay on Botrytis cinerea [1]; in assay [2]; in the assay on Botrytis cinerea [3]) was over 70% in each case.

Turning to `COc1cc(C)nn1-c1cc(-c2ccnc(Nc3cccc(Cl)c3)n2)ccn1` [3.01/028, (3-Chloro-phenyl)-{4-[2-(5-methoxy-3-methyl-pyrazol-1-yl)-pyridin-4-yl]-pyrimidin-2-yl}-amine], the pest or weed control at 0.02 % strength (in the assay on Septoria nodorum; in assay [2]; in the assay with Botrytis cinerea [3]) was over 70% in each case.

As for `CC1=NN(c2cc(-c3ccnc(Nc4cccc(Cl)c4)n3)ccn2)C(=O)C12CC2` [1.04/028, 5-{4-[2-(3-Chloro-phenylamino)-pyrimidin-4-yl]-pyridin-2-yl}-7-methyl-5,6-diaza-spiro[2.4]hept-6-en-4-one], the pest or weed control at 0.02 % strength (in the assay on Botrytis cinerea [1]; in assay [2]; in the assay on Botrytis cinerea [3]) was over 70% throughout.

`COc1c(C)cnn1-c1cc(-c2ccnc(Nc3cccc(Cl)c3)n2)ccn1` [3.012/028, (3-Chloro-phenyl)-{4-[2-(5-methoxy-4-methyl-pyrazol-1-yl)-pyridin-4-yl]-pyrimidin-2-yl}-amine]: the pest or weed control at 0.02 % strength (in the assay with Botrytis cinerea [1]; in the assay with Septoria nodorum; in assay [2]) was over 70% in each case.
